In PubChem BioAssay (NCI):
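How tested: cells in 96-well plates exposed to compound for 48 hours at five concentrations. The concentration for full growth arrest is given as TGI.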

Tests used:
Assay in all cases: NCI tumour cell line growth inhibition, 48 h
RXF 393 renal = system: RXF 393 renal
OVCAR-3 ovarian = system: OVCAR-3 ovarian
IGROV1 ovarian = system: IGROV1 ovarian
SF-539 CNS = system: SF-539 CNS
MDA-MB-231 breast = system: MDA-MB-231 breast
BT-549 breast = system: BT-549 breast
OVCAR-8 ovarian = system: OVCAR-8 ovarian
NCI/ADR-RES ovarian = system: NCI/ADR-RES ovarian
HL-60(TB) leukemia = system: HL-60(TB) leukemia
SNB-75 CNS = system: SNB-75 CNS
A549 NSCLC = system: A549 NSCLC
OVCAR-5 ovarian = system: OVCAR-5 ovarian
HOP-92 NSCLC = system: HOP-92 NSCLC
KM12 colon = system: KM12 colon
SW-620 colon = system: SW-620 colon
RPMI-8226 leukemia = system: RPMI-8226 leukemia
NCI-H522 lung = system: NCI-H522 lung
HCC-2998 colon = system: HCC-2998 colon

Compound | TGI (RXF 393 renal) [µM] | TGI (OVCAR-3 ovarian) [µM] | TGI (IGROV1 ovarian) [µM] | TGI (SF-539 CNS) [µM] | TGI (MDA-MB-231 breast) [µM] | TGI (BT-549 breast) [µM] | TGI (OVCAR-8 ovarian) [µM] | TGI (NCI/ADR-RES ovarian) [µM] | TGI (HL-60(TB) leukemia) [µM] | TGI (SNB-75 CNS) [µM] | TGI (A549 NSCLC) [µM] | TGI (OVCAR-5 ovarian) [µM] | TGI (HOP-92 NSCLC) [µM] | TGI (KM12 colon) [µM] | TGI (SW-620 colon) [µM] | TGI (RPMI-8226 leukemia) [µM] | TGI (NCI-H522 lung) [µM] | TGI (HCC-2998 colon) [µM]
O=[N+]([O-])c1nccn1CCCNCCCn1ccnc1[N+](=O)[O-] | > 100 | > 100 | > 100 | > 100 | > 100 | > 100 | > 100 | > 100 | > 100 | > 100 | > 100 | > 100 | > 100 | > 100 | > 100 | > 100 | > 100 | 
O=[N+]([O-])c1cccc2nc3ccccc3c(NCCCN3CCCCC3)c12 | 0.0246 | 0.026 | 0.0758 | 0.0451 | 0.0509 | 0.114 | 0.118 | 4.9 | 0.511 | 0.0497 | 0.115 | 0.0669 | 0.0434 | 0.112 | 5.89 | 0.0611 | 0.0236 | 
N#Cc1c(N)c(C#N)c2c(c1-c1ccc(Cl)cc1)COc1ccccc1-2 | 30.4 | 30.6 | 66.5 | 49.1 | 92.3 | 65.2 |  | 68.5 | 68.8 |  | 33.2 | > 100 | 45.5 | > 100 | > 100 | 17.1 |  | 54.9
COc1ccc2c(-c3ccc(O)cc3)c(Oc3ccc(Cl)cc3)c(=O)oc2c1 | 25 | 12.3 | 9.99 | 28.8 | 20.6 | 23.3 | > 48.8 | > 46 |  | 33.8 | > 29.5 | 21.4 | 23.7 | 22.6 | > 32 | 20.8 | 6.53 | 25.7
CC(=O)Nc1ccc2cc3[nH]c4cc(NC(C)=O)ccc4c3nc2c1 | > 100 | > 100 | > 100 | > 100 | > 100 | > 100 | > 100 | > 100 |  | > 100 | > 100 | > 100 | > 100 | > 100 | > 100 | > 100 | > 100 | > 100
Cc1cc2c(cc1C)C(=O)/C(=N/Nc1ccc(F)cc1)CCO2 |  | > 100 | > 100 | > 100 | > 100 | > 100 | > 100 | > 100 | > 100 |  | > 100 | > 100 | > 100 | > 100 | > 100 | > 100 | > 100 | > 100
O=C(Nc1nc(C23CC4CC(CC(C4)C2)C3)cs1)c1cc2c(ccc3ccccc32)oc1=O |  | > 100 | > 100 | > 100 | > 100 | > 100 | > 100 | > 100 | > 100 |  | > 100 | > 100 | > 100 | > 100 | > 100 | > 100 | > 100 | > 100
C[C@]12CC/C(=N\OCCN3CCCCC3)C=C1CCC1C2CC[C@@]2(C)C1CC[C@]2(C)O (stereo partly specified) | 56.5 | 42.8 | 35.5 | 22.5 | 28.2 | 33.5 | 27 | 20.5 |  | 24.8 | 35 | 94.4 | 26 | 26.6 | 62.8 | 31.5 | 7.52 | 22.1
COc1ccc(N2C(=O)/C(=C\c3cccc(Oc4ccccc4)c3)SC2c2ccccc2)cc1 (stereo unspecified) | > 100 | > 100 |  | 55.9 | > 100 | > 100 | > 100 | > 100 | > 100 |  | > 100 | > 100 | > 100 | > 100 | > 100 | 60.9 | 58.9 | > 100
Oc1ccc(-c2cn3cc(C(F)(F)F)ccc3n2)cc1 | > 100 | > 100 | > 100 |  | > 100 | > 100 | > 100 | > 100 | > 100 | > 100 | > 100 | > 100 | > 100 | > 100 | > 100 |  | 88 | 42.3
CC(NC(NC(C)C12CC3CC(CC(C3)C1)C2)=C(C(Cl)=C(Cl)Cl)[N+](=O)[O-])C12CC3CC(CC(C3)C1)C2 (stereo unspecified) | 62.9 | 64.8 | 30.1 | 69 | 16 | > 91.6 | 7.41 | > 100 |  | > 100 | 25.7 | > 100 | 17.3 | > 100 | 62.1 | > 69.5 | 24.3 | > 75
